Assay results: patent US20080039515A1, “Arylpyrazoles And Methods Of Using Same For Control Of Insect Pests That Bore Into Trees” (The Texas A&M University System, priority 2004, published 2008)
Where two headings read alike, the source gives them in different places.

Legend:
[1] = test system: loblolly pine trees, Pinus taeda L.; conditions: in vivo
Description: Treatment Methods: Trial 1: Loblolly pine trees, Pinus taeda L., 15-20 cm (=6-9 inch) diameter at breast height (DBH), were selected in March of the study year in a 20-year-old pine stand in east Texas (Angelina County). Each treatment was injected into four cardinal points about 0.3 m above the ground on each of 15 trees in April (16th-23rd) using the Arborjet Tree IV™ microinfusion system (Arborjet, Inc. Woburn, Mass.).
At the time of tree felling, a section of lower bole (˜60-80 cm) containing the injection points was taken from each injected tree. The bark was later removed around the injection points to determine if any damage had resulted from the installation of plugs and/or injection of chemicals. If damage was found, the length and width of any ‘lesions’ (discolored areas on the surface of the xylem) were measured.

Cerambycid = format: in vivo, cerambycids; conditions: for Number of Attacks/0.3 m bole section at 3 m after 24 days: Cerambycid: 576 h
Description: After 5 weeks post-injection (May 28), frills were cut with a hatchet into the sapwood between the injection points near the base of the tree. A cellulose. sponge was inserted into each cut and loaded with I0 ml of a 4:1 mix of sodium N-methyldithiocarbamate (MS) (Woodfume®; Osmose, Inc., Buffalo, N.Y.) plus dimethyl sulfoxide (DMSO) (Aldrich Chemical) (Roton 1987, Strom et al. 2004). This method reduces resin to near zero in 1-2 weeks. The intent was to stress the tree and make it susceptible to attack by bark beetles without killing it. Pheromone packets containing racemic ipsdienol+lanerione, ipsenol or cis-verbenol were attached (June 7) atop 3 m stakes evenly spaced in between and around the study trees to encourage attack by the three Ips engraver species. […] Thus, ipsdienol and cis-verbenol pheromone baits were deployed on all stakes on June 17th. The baits were changed every 4 weeks.
Trial 2. Three weeks after pheromone deployment (June 28), each tree was evaluated by marking a 30 cm (1 ft) section of bole at a height of 3 m (10 ft). All visible Ips attacks and cerambycid egg niches were counted within the marked area. The number of trees with fading crowns also was recorded. Thereafter, the trees were evaluated weekly for crown fading. When mortality did occur, the trees were felled and two bolts taken and evaluated for attack success and gallery length as described in Trial 1. All remaining trees were felled 66 days (Aug. 9) after initial pheromone deployment when no additional trees had died for 2 weeks. Treatment efficacy was determined by comparing tree survival, beetle attacks and egg gallery length on treated and untreated bolts. As before, data were transformed and analyzed by GLM and the Fisher's Protected LSD test using the Statview statistical program.

cerambycid larvae = format: in vivo, cerambycids; conditions: for reduction of cerambycid larval feeding damage: May
Description: Study Sites: Two 20-year-old, recently thinned loblolly pine plantations were selected in Texas. Trees in one plantation were injected for use in a bolt study (Trial 1). Trees in ½ acre section of the second plantation were injected as part of a single-tree protection study (Trial 2). A staging area also was set up in the second plantation where bolts from the first plantation were exposed to bark beetles and wood borers.
After 1 (May 24), 3 (July 19) and 5 (September) months post-injection, 5 trees of each treatment were felled and two 1.5 m long bolts were removed from the 3 m and 8 m heights of the bole. Because southern pine beetle (SPB) populations were extremely low in east Texas during the study year, Ips engravers were used as alternative bark beetles for this study. The bolts were transported to a 20-year-old loblolly plantation that was recently thinned and contained fresh slash material. Each bolt was placed about 1 m apart on discarded, dry pine bolts to maximize surface area available for colonization as well as to discourage predation by ground and litter-inhabiting organisms. To facilitate timely bark beetle colonization, packets of bark beetle pheromones (racemic ipsdienol +lanerione combination, ipsenol or cis-verbenol; Phero Tech, Inc., Delta, BC, Canada) were attached separately to three 1 m stakes evenly spaced in the study area. Racemic ipsdienol and cis-verbenol were used with the second series of bolts deployed in July. The packets were removed after 2 weeks when signs of attacks (boring dust) were observed on most test bolts, signaling that naturally-produced pheromones were present.
Treatment Evaluation: Trial 1. The first and second series of bolts were retrieved 2.5 and 3 weeks, respectively, after deployment, after observing many cerambycid attacks on most of the bolts. In the laboratory, two 10×50 cm strips (total=1000 cm^2) of bark were removed from each bolt. Several measurements were made relating to construction of nuptial chambers and egg galleries and development of brood: • 1. Number of unsuccessful attacks—penetration to phloem, but no egg galleries. • 2. Number of successful attacks—construction of nuptial chamber and at least one egg gallery extending from it. • 3. Number and lengths of egg galleries with brood galleries radiating from them. • 4. Number and lengths of egg galleries without brood galleries. • 5. Cerambycid activity, estimated by overlaying a 100 cm^2 grid over a portion of each bark strip and counting the number of squares overlapping area where cerambycids had fed.
Treatment efficacy was determined by comparing Ips beetle attacks and egg gallery length and cerambycid feeding on treated and untreated bolts. The data were transformed by log10(x+1) to satisfy criteria for normality and homoscedasticity (Zar 1984) and analyzed by GLM and the Fishers Protected LSD test using the Statview statistical program.

O=[N+]([O-])NC1=NCCN1Cc1ccc(Cl)nc1 [Imid]
Lesion Length ([1]; 1 month): 7.3 b cm
Lesion Width ([1]; 1 month): 1.7 a cm
Lesion Length ([1]; 3 months): 6.1 a cm
Lesion Width ([1]; 3 months): 1.3 cm
Number of Attacks/0.3 m bole section at 3 m after 24 days: Cerambycid (Cerambycid): 4.7 a
reduction of cerambycid larval feeding damage (cerambycid larvae; bolts from 3 m): 61%
reduction of cerambycid larval feeding damage (cerambycid larvae; bolts from 8 m): 98%

N#Cc1nn(-c2c(Cl)cc(C(F)(F)F)cc2Cl)c(N)c1[S+]([O-])C(F)(F)F (stereo not shown) [Fip, 5-amino-3-cyano-1-(2,6-dichloro-4-trifluoromethylphenyl)-4-trifluoromethylsulfinylpyrazole]
Lesion Length ([1]; 1 month): 4.1 a cm
Lesion Width ([1]; 1 month): 1.5 a cm
Lesion Length ([1]; 3 months): 4.1 a cm
Lesion Width ([1]; 3 months): 1.4 cm
Borer Feeding Area (% of Total Area) (Cerambycid): 0.0 % of Total Area
Number of Attacks/0.3 m bole section at 3 m after 24 days: Cerambycid (Cerambycid): 1.3 a
phloem area fed upon by cerambycid larvae (cerambycid larvae; July, bolts from 3 m): 2%
reduction of cerambycid larval feeding damage (cerambycid larvae; bolts from 3 m): 82%
reduction of cerambycid larval feeding damage (cerambycid larvae; bolts from 8 m): 55%
